Read-outs that look alike come from different tables or passages of the source.
Target: T1, Full length wild-type cereblon CRBN (Homo sapiens, UniProt Q96SW2)
T1 construct: Full length wild-type cereblon CRBN (80.0 nM, 10 μL) was incubated in assay buffer
Assay: Fluorescence polarization (FP) assay, cereblon binding
Description: Compound activity was monitored in a fluorescence polarization (FP) homogeneous assay using 1-[5-({2-[2-(2-{[2-(2,6-dioxopiperidin-3-yl)-1,3-dioxo-2,3-dihydro-1H-isoindol-4-yl]oxy}acetamido)ethoxy]ethyl}carbamoyl)pentyl]-3,3-dimethyl-2-[(1E,3E)-5-[(2E)-1,3,3-trimethyl-5-sulfo-2,3-dihydro-1H-indol-2-ylidene]penta-1,3-dien-1-yl]-3H-indol-1-ium-5-sulfonate as a fluorescent probe. Unless otherwise stated, all reagents were purchased from Sigma Aldrich. […] Full length wild-type cereblon CRBN (80.0 nM, 10 μL) was incubated in assay buffer containing 20 mM HEPES (pH 8.0), […], 0.5 mM TCEP and 0.05% Tween 20 in the presence or absence of compound (300 nL). Inhibitors were stored as 10 mM DMSO stocks in an inert environment (low humidity, dark, low oxygen, room temperature) using the Storage Pod System. […] Following incubation at room temperature for 30 min, the assay was initiated by dispensing the probe to a final concentration of […] (2.5 nL of a 20 μM stock) using the Echo E5XX. […] The FP signal was subsequently normalized to the no-compound control (i.e., DMSO). Analysis and IC50 values were derived using Dotmatics (Dotmatics UK) software.

[1] = bounds stated in the text lists b2059-b2061, read-out: IC50 value
[2] = cereblon binding, class code, read-out: rFP IC50
[3] = IC50 value, bounds stated in the text lists b2059-b2061
[4] = rFP IC50 [nM], cereblon binding, class code

T1 sequence (Q96SW2 whole entry): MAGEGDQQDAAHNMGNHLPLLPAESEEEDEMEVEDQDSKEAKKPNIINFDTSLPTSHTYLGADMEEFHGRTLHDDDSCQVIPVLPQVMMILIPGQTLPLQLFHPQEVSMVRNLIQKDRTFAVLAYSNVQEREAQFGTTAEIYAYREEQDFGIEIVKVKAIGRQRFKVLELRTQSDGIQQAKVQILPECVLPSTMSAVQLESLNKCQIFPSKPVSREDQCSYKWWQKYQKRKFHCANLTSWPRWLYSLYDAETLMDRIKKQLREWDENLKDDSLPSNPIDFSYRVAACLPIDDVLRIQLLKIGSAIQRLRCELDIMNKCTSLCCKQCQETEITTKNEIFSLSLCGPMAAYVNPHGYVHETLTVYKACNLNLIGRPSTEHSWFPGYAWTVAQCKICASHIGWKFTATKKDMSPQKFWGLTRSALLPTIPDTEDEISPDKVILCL

CC1CCCCN1c1ccc(NC(=O)OCc2ccc3c(c2)C(=O)N(C2CCC(=O)NC2=O)C3)cn1 (centres unmarked) [Compound 77]
IC50 [1]: < 1700 nM
IC50 [2]: 500 to 1100 nM

Cc1cc(F)cc(NC(=O)OCc2ccc3c(c2)C(=O)N(C2CCC(=O)NC2=O)C3)c1 (centres unmarked) [Compound 146, (2-(2,6-dioxopiperidin-3-yl)-3-oxoisoindolin-5-yl)methyl (3-fluoro-5-methylphenyl) carbamate]
IC50 [1]: < 1700 nM
IC50 [2]: 1100 to 1700 nM

O=C1CCC(N2Cc3ccc(COC(=O)Nc4ccc5c(c4)CCC5)cc3C2=O)C(=O)N1 (centres unmarked) [Compound 56]
IC50 [1]: < 1700 nM
IC50 [2]: 1100 to 1700 nM

Cc1c(Cl)cc(NC(=O)OCc2ccc3c(c2)C(=O)N(C2CCC(=O)NC2=O)C3)cc1OCC1CCNC1 (centres unmarked) [Compound 52]
IC50 [1]: < 1700 nM
IC50 [2]: 500 to 1100 nM

O=C1CCC(N2Cc3ccc(COC(=O)N4CCN(c5ccccc5)CC4)cc3C2=O)C(=O)N1 (centres unmarked) [Compound 36]
IC50 [1]: < 1100 nM

CC1(c2ccc(NC(=O)OCc3ccc4c(c3)C(=O)N(C3CCC(=O)NC3=O)C4)cc2)CC1 (centres unmarked) [Compound 58]
IC50 [1]: < 1700 nM
IC50 [2]: 500 to 1100 nM

Cc1ccc(NC(=O)OCc2ccc3c(c2)C(=O)N(C2CCC(=O)NC2=O)C3)cc1OC(F)F (centres unmarked) [Compound 24]
IC50 [1]: < 1700 nM
IC50 [2]: 500 to 1100 nM

O=C1CCC(N2Cc3ccc(COC(=O)Nc4cc(F)c(F)c(Cl)c4)cc3C2=O)C(=O)N1 (centres unmarked) [Compound 132]
IC50 [3]: < 1100 nM
IC50 [4]: 500 to 1100 nM

CC(C)(C)c1cc(NC(=O)OCc2ccc3c(c2)C(=O)N(C2CCC(=O)NC2=O)C3)ccn1 (centres unmarked) [Compound 114]
IC50 [3]: < 1100 nM

Cc1ccc(NC(=O)OCc2ccc3c(c2)C(=O)N(C2CCC(=O)NC2=O)C3)cc1C (centres unmarked) [Compound 129]
IC50 [3]: < 1100 nM

O=C1CCC(N2Cc3ccc(COC(=O)NC4CCCCC4)cc3C2=O)C(=O)N1 (centres unmarked) [Compound 28]
IC50 [1]: < 1700 nM
IC50 [2]: 1100 to 1700 nM

O=C1CCC(N2Cc3ccc(COC(=O)Nc4cc(OCCN5CCOCC5)cc(OC(F)F)c4)cc3C2=O)C(=O)N1 (centres unmarked) [Compound 96]
IC50 [1]: < 1700 nM
IC50 [2]: 1100 to 1700 nM

CC1COc2cc(NC(=O)OCc3ccc4c(c3)C(=O)N(C3CCC(=O)NC3=O)C4)ccc21 (centres unmarked) [Compound 103]
IC50 [1]: < 1700 nM
IC50 [2]: 500 to 1100 nM

Cc1c(Cl)cc(NC(=O)OCc2ccc3c(c2)C(=O)N(C2CCC(=O)NC2=O)C3)cc1OC1CCNC1 (centres unmarked) [Compound 44]
IC50 [1]: < 1700 nM
IC50 [2]: 500 to 1100 nM

CC(C)(C)c1ccc(NC(=O)OCc2ccc3c(c2)C(=O)N(C2CCC(=O)NC2=O)C3)c(F)c1 (centres unmarked) [Compound 142, (2-(2,6-dioxopiperidin-3-yl)-3-oxoisoindolin-5-yl)methyl (4-(tert-butyl)-2-fluorophenyl)carbamate]
IC50 [1]: < 1100 nM
IC50 [2]: 500 to 1100 nM

CC1(C)COc2cc(NC(=O)OCc3ccc4c(c3)C(=O)N(C3CCC(=O)NC3=O)C4)ccc21 (centres unmarked) [Compound 83]
IC50 [1]: < 1700 nM
IC50 [2]: 500 to 1100 nM

N#Cc1cc(Cl)cc(NC(=O)OCc2ccc3c(c2)C(=O)N(C2CCC(=O)NC2=O)C3)c1 (centres unmarked) [Compound 111, (2-(2,6-dioxopiperidin-3-yl)-3-oxoisoindolin-5-yl)methyl (3-chloro-5-cyanophenyl)carbamate]
IC50 [1]: < 1100 nM

O=C1CCC(N2Cc3ccc(COC(=O)N4CCC(Oc5ccccc5)C4)cc3C2=O)C(=O)N1 (centres unmarked) [Compound 30]
IC50 [1]: < 1100 nM

O=C1CCC(N2Cc3ccc(COC(=O)Nc4cc(CN5CCOCC5)cc(OC(F)(F)F)c4)cc3C2=O)C(=O)N1 (centres unmarked) [Compound 4]
IC50 [1]: < 1700 nM
IC50 [2]: 500 to 1100 nM

O=C1CCC(N2Cc3ccc(COC(=O)Nc4ccc(F)c(Cl)c4)cc3C2=O)C(=O)N1 (centres unmarked) [Compound 9]
IC50 [1]: < 1700 nM
IC50 [2]: 1100 to 1700 nM

CCOc1cc(NC(=O)OCc2ccc3c(c2)C(=O)N(C2CCC(=O)NC2=O)C3)ccc1C (centres unmarked) [Compound 33]
IC50 [1]: < 500 nM
IC50 [2]: 500 to 1100 nM

COc1cc(NC(=O)OCc2ccc3c(c2)C(=O)N(C2CCC(=O)NC2=O)C3)cnc1C (centres unmarked) [Compound 51]
IC50 [1]: < 1700 nM
IC50 [2]: 500 to 1100 nM

O=C1CCC(N2Cc3ccc(COC(=O)NC4COC(c5ccccc5)OC4)cc3C2=O)C(=O)N1 (centres unmarked) [Compound 130]
IC50 [3]: < 1100 nM
IC50 [4]: 500 to 1100 nM

O=C1CCC(N2Cc3ccc(COC(=O)Nc4ccc(C5CCC5)nc4)cc3C2=O)C(=O)N1 (centres unmarked) [Compound 105]
IC50 [1]: < 1700 nM
IC50 [2]: 500 to 1100 nM

Cc1cc(NC(=O)OCc2ccc3c(c2)C(=O)N(C2CCC(=O)NC2=O)C3)cc(C)c1C#N (centres unmarked) [Compound 108]
IC50 [3]: < 1100 nM

Cc1ccc(OC(F)(F)F)cc1NC(=O)OCc1ccc2c(c1)C(=O)N(C1CCC(=O)NC1=O)C2 (centres unmarked) [Compound 128]
IC50 [3]: < 1100 nM
IC50 [4]: 500 to 1100 nM

CC1(c2ccc(NC(=O)OCc3ccc4c(c3)C(=O)N(C3CCC(=O)NC3=O)C4)cc2)COC1 (centres unmarked) [Compound 62]
IC50 [1]: < 1700 nM
IC50 [2]: 500 to 1100 nM

COc1ccccc1-c1ccc(NC(=O)OCc2ccc3c(c2)C(=O)N(C2CCC(=O)NC2=O)C3)cn1 (centres unmarked) [Compound 87]
IC50 [1]: < 1700 nM
IC50 [2]: 500 to 1100 nM

O=C1CCC(N2Cc3ccc(COC(=O)NC4CCCC4)cc3C2=O)C(=O)N1 (centres unmarked) [Compound 29]
IC50 [1]: < 1700 nM
IC50 [2]: 500 to 1100 nM

O=C1CCC(N2Cc3ccc(COC(=O)Nc4cccc(OC(F)F)c4)cc3C2=O)C(=O)N1 (centres unmarked) [Compound 5]
IC50 [1]: < 1700 nM
IC50 [2]: 1100 to 1700 nM

Cc1cc(C)c(F)c(NC(=O)OCc2ccc3c(c2)C(=O)N(C2CCC(=O)NC2=O)C3)c1 (centres unmarked) [Compound 122, (2-(2,6-dioxopiperidin-3-yl)-3-oxoisoindolin-5-yl)methyl (2-fluoro-3,5-dimethylphenyl)carbamate]
IC50 [1]: < 1100 nM

Cc1cc(C#N)cc(NC(=O)OCc2ccc3c(c2)C(=O)N(C2CCC(=O)NC2=O)C3)c1 (centres unmarked) [Compound 112, (2-(2,6-dioxopiperidin-3-yl)-3-oxoisoindolin-5-yl)methyl (3-cyano-5-methylphenyl)carbamate]
IC50 [1]: < 1100 nM

COc1ccccc1CNC(=O)OCc1ccc2c(c1)C(=O)N(C1CCC(=O)NC1=O)C2 (centres unmarked) [Compound 97]
IC50 [1]: < 1700 nM
IC50 [2]: 500 to 1100 nM

CC1CCCN1c1ccc(NC(=O)OCc2ccc3c(c2)C(=O)N(C2CCC(=O)NC2=O)C3)cn1 (centres unmarked) [Compound 74]
IC50 [1]: < 1100 nM

O=C1CCC(N2Cc3ccc(COC(=O)Nc4ccc(N5CCC5)nc4)cc3C2=O)C(=O)N1 (centres unmarked) [Compound 107]
IC50 [1]: < 1100 nM

O=C1CCC(N2Cc3ccc(COC(=O)N4CCCC4)cc3C2=O)C(=O)N1 (centres unmarked) [Compound 26]
IC50 [1]: < 1700 nM
IC50 [2]: 500 to 1100 nM

CC1CCN(c2ccc(NC(=O)OCc3ccc4c(c3)C(=O)N(C3CCC(=O)NC3=O)C4)cn2)C1 (centres unmarked) [Compound 69]
IC50 [1]: < 1100 nM

Cc1c(Cl)cc(NC(=O)OCc2ccc3c(c2)C(=O)N(C2CCC(=O)NC2=O)C3)cc1CN1CCOCC1 (centres unmarked) [Compound 2]
IC50 [1]: < 1700 nM
IC50 [2]: 500 to 1100 nM

CCc1nscc1NC(=O)OCc1ccc2c(c1)C(=O)N(C1CCC(=O)NC1=O)C2 (centres unmarked) [Compound 147]
IC50 [1]: < 1100 nM
IC50 [2]: 500 to 1100 nM

O=C1CCC(N2Cc3ccc(COC(=O)Nc4cc(C(F)(F)F)ns4)cc3C2=O)C(=O)N1 (centres unmarked) [Compound 139]
IC50 [3]: < 1100 nM
IC50 [4]: 500 to 1100 nM

Cc1c(Cl)cc(NC(=O)OCc2ccc3c(c2)C(=O)N(C2CCC(=O)NC2=O)C3)cc1OCC1CCN(C)C1 (centres unmarked) [Compound 70]
IC50 [1]: < 1100 nM

O=C1CCC(N2Cc3ccc(COC(=O)Nc4cc(OC(F)(F)F)ccn4)cc3C2=O)C(=O)N1 (centres unmarked) [Compound 59]
IC50 [1]: < 1100 nM

O=C1CCC(N2Cc3ccc(COC(=O)Nc4cnc(N5CCCCC5)c(F)c4)cc3C2=O)C(=O)N1 (centres unmarked) [Compound 72]
IC50 [1]: < 1700 nM
IC50 [2]: 500 to 1100 nM

O=C1CCC(N2Cc3ccc(COC(=O)Nc4cnc5c(c4)COCC5)cc3C2=O)C(=O)N1 (centres unmarked) [Compound 54]
IC50 [1]: < 1100 nM

O=C1CCC(N2Cc3ccc(COC(=O)Nc4cnc(N5CCCCC5)nc4)cc3C2=O)C(=O)N1 (centres unmarked) [Compound 64]
IC50 [1]: < 1700 nM
IC50 [2]: 500 to 1100 nM

O=C1CCC(N2Cc3ccc(COC(=O)NC4CCN(c5ccccn5)CC4)cc3C2=O)C(=O)N1 (centres unmarked) [Compound 35]
IC50 [1]: < 1100 nM

O=C1CCC(N2Cc3ccc(COC(=O)NCc4ccccc4)cc3C2=O)C(=O)N1 (centres unmarked) [Compound 98]
IC50 [1]: < 1700 nM
IC50 [2]: 500 to 1100 nM

CCc1cc(NC(=O)OCc2ccc3c(c2)C(=O)N(C2CCC(=O)NC2=O)C3)ccn1 (centres unmarked) [Compound 63]
IC50 [1]: < 1100 nM

O=C1CCC(N2Cc3ccc(COC(=O)Nc4ccc(N5CCC(F)(F)CC5)nc4)cc3C2=O)C(=O)N1 (centres unmarked) [Compound 78]
IC50 [1]: < 1100 nM

O=C1CCC(N2Cc3ccc(COC(=O)Nc4ccc(N5CC6CCC(C5)O6)nc4)cc3C2=O)C(=O)N1 (centres unmarked) [Compound 65]
IC50 [1]: < 1100 nM

Cc1ccccc1-c1ccc(NC(=O)OCc2ccc3c(c2)C(=O)N(C2CCC(=O)NC2=O)C3)cn1 (centres unmarked) [Compound 86]
IC50 [1]: < 1700 nM
IC50 [2]: 500 to 1100 nM

O=C1CCC(N2Cc3ccc(COC(=O)Nc4ccc5c(c4)OCC5)cc3C2=O)C(=O)N1 (centres unmarked) [Compound 18]
IC50 [1]: < 1700 nM
IC50 [2]: 500 to 1100 nM

Cc1cc(NC(=O)OCc2ccc3c(c2)C(=O)N(C2CCC(=O)NC2=O)C3)cc(C(C)(C)C)n1 (centres unmarked) [Compound 118]
IC50 [3]: < 1100 nM
IC50 [4]: 500 to 1100 nM

CCc1cc(NC(=O)OCc2ccc3c(c2)C(=O)N(C2CCC(=O)NC2=O)C3)cc(C)n1 (centres unmarked) [Compound 71]
IC50 [1]: < 1700 nM
IC50 [2]: 1100 to 1700 nM

O=C1CCC(N2Cc3ccc(COC(=O)N4CCCCC4)cc3C2=O)C(=O)N1 (centres unmarked) [Compound 23]
IC50 [1]: < 1100 nM

CN1CCN(c2ccc(NC(=O)OCc3ccc4c(c3)C(=O)N(C3CCC(=O)NC3=O)C4)cn2)CC1 (centres unmarked) [Compound 82]
IC50 [1]: < 1100 nM

From US20230348418A1, “ISOINDOLINONE COMPOUNDS” (Monte Rosa Therapeutics, Inc., priority 2021, published 2023)
